# Assay results published in ChEMBL document CHEMBL5329205, “Development of novel quinoline-NO donor hybrids inducing human breast cancer cells apoptosis via inhibition of topoisomerase I” (Bioorg Med Chem, 2023).
# Columns and labels:
# [1] = Cytotoxicity against human MCF-10A cells assessed as cell growth inhibition measured after 48 hrs by MTT assay; format: toxicity, cell-based
# NCI/ADR-RES = assay: Antiproliferative activity against human MCF7ADR cells assessed as inhibition of cell growth measured after 48 hrs by MTT assay; format: functional, cell-based
# HCT-116 = assay: Antiproliferative activity against human HCT-116 cells assessed as inhibition of cell growth incubated for 48 hrs by MTT assay; format: functional, cell-based; conditions: HCT-116, 48 h
# A549 = assay: Antiproliferative activity against human A549 cells assessed as inhibition of cell growth incubated for 48 hrs by MTT assay; format: functional, cell-based; conditions: A549, 48 h
# MCF7 [2] = assay: Antiproliferative activity against human MCF7 cells assessed as inhibition of cell growth incubated for 48 hrs by MTT assay; format: functional, cell-based; conditions: MCF7, 48 h
# [3] = Toxicity in BALB/c mouse xenografted with human MCF7 cells assessed as kidney damage at 10 mg/kg, ip administered once every two days for 3 weeks by H and E staining based microscopic analysis; format: organism-based; conditions: in vivo, 504 h
# [4] = Toxicity in BALB/c mouse xenografted with human MCF7 cells assessed as liver damage at 10 mg/kg, ip administered once every two days for 3 weeks by H and E staining based microscopic analysis; format: organism-based; conditions: in vivo, 504 h
# [5] = Toxicity in BALB/c mouse xenografted with human MCF7 cells assessed as lung damage at 10 mg/kg, ip administered once every two days for 3 weeks by H and E staining based microscopic analysis; format: organism-based; conditions: in vivo, 504 h
# [6] = Toxicity in BALB/c mouse xenografted with human MCF7 cells assessed as heart damage at 10 mg/kg, ip administered once every two days for 3 weeks by H and E staining based microscopic analysis; format: organism-based; conditions: in vivo, 504 h
# MCF7 [7] = assay: Antitumor activity against human MCF7 cells xenografted in BALB/c nude mouse assessed as reduction in tumor weight at 10 mg/kg, ip administered once every two days for 3 weeks relative to control; format: functional; design: scale not given: the % may be the effect or the level left
# [8] = Toxicity in BALB/c mouse xenografted with human MCF7 cells assessed as spleen damage at 10 mg/kg, ip administered once every two days for 3 weeks by H and E staining based microscopic analysis; format: organism-based; conditions: in vivo, 504 h
SMILES,IC50 (HCT-116),IC50 (A549),IC50 (MCF7 [2]),IC50 at 48 h [1],IC50 (NCI/ADR-RES),Activity [3],Activity [4],Activity [5],Activity [6],Activity (MCF7 [7]),Activity [8]
COc1cc(-c2cc(C(=O)OCCOc3no[n+]([O-])c3S(=O)(=O)c3ccccc3)c3ccccc3n2)cc(OC)c1OC,3.79 µM,2.69 µM,2.25 µM,16.3 µM,3.35 µM,,,,,,
COc1cccc2c1C(=O)c1c(O)c3c(c(O)c1C2=O)C[C@@](O)(C(=O)CO)C[C@@H]3O[C@H]1C[C@H](N)[C@H](O)[C@H](C)O1 [DOXORUBICIN],0.72 µM,0.57 µM,,,,,,,,,
COc1cc(-c2cc(C(=O)O)c3ccccc3n2)cc(OC)c1OC,,,> 50 µM,,,,,,,,
CC(=O)O[C@H]1C(=O)[C@@]2(C)[C@H]([C@H](OC(=O)c3ccccc3)[C@]3(O)C[C@H](OC(=O)[C@H](O)[C@@H](NC(=O)c4ccccc4)c4ccccc4)C(C)=C1C3(C)C)[C@]1(OC(C)=O)CO[C@@H]1C[C@@H]2O [PACLITAXEL],,,,,,Non-Toxic,Non-Toxic,Non-Toxic,Non-Toxic,61.18%,Non-Toxic
O=C(O)c1ccnc2ccccc12,> 50 µM,> 50 µM,> 50 µM,> 50 µM,> 50 µM,,,,,,
COc1cc(-c2cc(C(=O)OCCCOc3no[n+]([O-])c3S(=O)(=O)c3ccccc3)c3ccccc3n2)cc(OC)c1OC,2.49 µM,2.3 µM,1.66 µM,30.7 µM,1.27 µM,,,,,,
O=C(OCCCCCCOc1no[n+]([O-])c1S(=O)(=O)c1ccccc1)c1ccnc2ccccc12,4.97 µM,> 5 µM,4.22 µM,34.1 µM,5.51 µM,,,,,,

# Continued, in another order:
IC50 (HCT-116),IC50 (A549),IC50 (MCF7 [2]),SMILES,IC50 at 48 h [1],IC50 (NCI/ADR-RES),Activity [3],Activity [4],Activity [5],Activity [6],Activity (MCF7 [7]),Activity [8]
4 µM,> 5 µM,4.22 µM,O=C(OCCCCOc1no[n+]([O-])c1S(=O)(=O)c1ccccc1)c1ccnc2ccccc12,32.2 µM,4.28 µM,,,,,,
4.37 µM,> 5 µM,4.23 µM,O=C(OCCCOc1no[n+]([O-])c1S(=O)(=O)c1ccccc1)c1ccnc2ccccc12,25.4 µM,5.16 µM,,,,,,
> 5 µM,3.49 µM,4.6 µM,O=C(OCCOc1no[n+]([O-])c1S(=O)(=O)c1ccccc1)c1ccnc2ccccc12,23.2 µM,3.32 µM,,,,,,
2.03 µM,2.41 µM,1.47 µM,COc1cc(-c2cc(C(=O)OCCCCOc3no[n+]([O-])c3S(=O)(=O)c3ccccc3)c3ccccc3n2)cc(OC)c1OC,36.5 µM,1.09 µM,,,,,,
4.95 µM,> 5 µM,> 5 µM,O=C(OCCCCCOc1no[n+]([O-])c1S(=O)(=O)c1ccccc1)c1ccnc2ccccc12,4.21 µM,4.66 µM,,,,,,
4.35 µM,2.71 µM,3.16 µM,COc1cc(-c2cc(C(=O)OCCCCCCOc3no[n+]([O-])c3S(=O)(=O)c3ccccc3)c3ccccc3n2)cc(OC)c1OC,28.2 µM,3.32 µM,,,,,,
,,14.4 µM,O=S(=O)(c1ccccc1)c1c(OCCCCCO)no[n+]1[O-],,,,,,,,
